Source: article PMC12090182, “Repurposing of the RIPK1-Selective Benzo[1,4]oxazepin-4-one Scaffold for the Development of a Type III LIMK1/2 Inhibitor” (ACS Chemical Biology, 2025)

Tested on: MRC-9 cells
Assay: Multiplex high-content viability assessment
Format: cell-based
Conditions: human fibroblast
Summary of the method: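 HEK293T and U2OS cells (DMEM) and MRC-9 fibroblasts (EMEM) exposed to compounds at 1 and 10 μM. Live-cell confocal imaging of cell shape and fluorescence before and at 12, 24 and 48 h. Normalized to 0.1% DMSO; biological duplicates with SEM.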

[1] = 1 µM, 0 h, biological replicate 1
[2] = 1 µM, 0 h, biological replicate 2
[3] = 1 µM, 12 h, biological replicate 1
[4] = 1 µM, 12 h, biological replicate 2
[5] = 1 µM, 24 h, biological replicate 1
[6] = 1 µM, 24 h, biological replicate 2
[7] = 1 µM, 48 h, biological replicate 1
[8] = 1 µM, 48 h, biological replicate 2
[9] = 10 µM, 0 h, biological replicate 1
[10] = 10 µM, 0 h, biological replicate 2
[11] = 10 µM, 12 h, biological replicate 1
[12] = 10 µM, 12 h, biological replicate 2
[13] = 10 µM, 24 h, biological replicate 1
[14] = 10 µM, 24 h, biological replicate 2
[15] = 10 µM, 48 h, biological replicate 1
[16] = 10 µM, 48 h, biological replicate 2

CC(C)C(=O)Nc1ncc(-c2cc(C(F)F)nn2-c2c(Cl)cccc2Cl)s1 [LIMKi3]
Cell count normalized to cells treated with DMSO control [1]: 1.034
Cell count per well [1]: 155
Population Fragmented Nuclei (%) [1]: 25.33%
Population Healthy Nuclei (%) [1]: 53.33%
Population Pyknosed Nuclei (%) [1]: 21.33%
Population apoptotic cell (%) [1]: 34.38%
Population cell that influence microtubule strucutre (%) [1]: 18.75%
Population with increased mitochondrial mass (%) [1]: 7.50%
Population with membrane disruption (%) [1]: 1.25%
Cell count normalized to cells treated with DMSO control [2]: 0.869
Cell count per well [2]: 155
Population Fragmented Nuclei (%) [2]: 31.13%
Population Healthy Nuclei (%) [2]: 41.06%
Population Pyknosed Nuclei (%) [2]: 27.81%
Population apoptotic cell (%) [2]: 38.10%
Population cell that influence microtubule strucutre (%) [2]: 48.39%
Population with increased mitochondrial mass (%) [2]: 11.29%
Population with membrane disruption (%) [2]: 8.06%
Cell count normalized to cells treated with DMSO control [3]: 0.9165
Cell count per well [3]: 138
Population Fragmented Nuclei (%) [3]: 20.00%
Population Healthy Nuclei (%) [3]: 63.70%
Population Pyknosed Nuclei (%) [3]: 16.30%
Population apoptotic cell (%) [3]: 22.73%
Population cell that influence microtubule strucutre (%) [3]: 25.58%
Population with increased mitochondrial mass (%) [3]: 5.81%
Population with membrane disruption (%) [3]: 1.16%
Cell count normalized to cells treated with DMSO control [4]: 0.8765
Cell count per well [4]: 146
Population Fragmented Nuclei (%) [4]: 30.94%
Population Healthy Nuclei (%) [4]: 44.60%
Population Pyknosed Nuclei (%) [4]: 24.46%
Population apoptotic cell (%) [4]: 35.29%
Population cell that influence microtubule strucutre (%) [4]: 75.81%
Population with increased mitochondrial mass (%) [4]: 11.29%
Population with membrane disruption (%) [4]: 20.97%
Cell count normalized to cells treated with DMSO control [5]: 0.9351
Cell count per well [5]: 141
Population Fragmented Nuclei (%) [5]: 15.83%
Population Healthy Nuclei (%) [5]: 69.06%
Population Pyknosed Nuclei (%) [5]: 15.11%
Population apoptotic cell (%) [5]: 33.33%
Population cell that influence microtubule strucutre (%) [5]: 33.33%
Population with increased mitochondrial mass (%) [5]: 7.29%
Population with membrane disruption (%) [5]: 0.00%
Cell count normalized to cells treated with DMSO control [6]: 0.8553
Cell count per well [6]: 141
Population Fragmented Nuclei (%) [6]: 38.85%
Population Healthy Nuclei (%) [6]: 41.73%
Population Pyknosed Nuclei (%) [6]: 19.42%
Population apoptotic cell (%) [6]: 40.74%
Population cell that influence microtubule strucutre (%) [6]: 62.07%
Population with increased mitochondrial mass (%) [6]: 12.07%
Population with membrane disruption (%) [6]: 20.69%
Cell count normalized to cells treated with DMSO control [7]: 0.9887
Cell count per well [7]: 150
Population Fragmented Nuclei (%) [7]: 26.21%
Population Healthy Nuclei (%) [7]: 62.07%
Population Pyknosed Nuclei (%) [7]: 11.72%
Population apoptotic cell (%) [7]: 52.94%
Population cell that influence microtubule strucutre (%) [7]: 31.11%
Population with increased mitochondrial mass (%) [7]: 6.67%
Population with membrane disruption (%) [7]: 0.00%
Cell count normalized to cells treated with DMSO control [8]: 0.8351
Cell count per well [8]: 136
Population Fragmented Nuclei (%) [8]: 42.54%
Population Healthy Nuclei (%) [8]: 45.52%
Population Pyknosed Nuclei (%) [8]: 11.94%
Population apoptotic cell (%) [8]: 37.50%
Population cell that influence microtubule strucutre (%) [8]: 77.05%
Population with increased mitochondrial mass (%) [8]: 14.75%
Population with membrane disruption (%) [8]: 9.84%
Cell count normalized to cells treated with DMSO control [9]: 1.054
Cell count per well [9]: 158
Population Fragmented Nuclei (%) [9]: 19.48%
Population Healthy Nuclei (%) [9]: 62.99%
Population Pyknosed Nuclei (%) [9]: 17.53%
Population apoptotic cell (%) [9]: 44.44%
Population cell that influence microtubule strucutre (%) [9]: 22.68%
Population with increased mitochondrial mass (%) [9]: 9.28%
Population with membrane disruption (%) [9]: 0.00%
Cell count normalized to cells treated with DMSO control [10]: 1.02
Cell count per well [10]: 182
Population Fragmented Nuclei (%) [10]: 18.39%
Population Healthy Nuclei (%) [10]: 59.77%
Population Pyknosed Nuclei (%) [10]: 21.84%
Population apoptotic cell (%) [10]: 50.00%
Population cell that influence microtubule strucutre (%) [10]: 38.46%
Population with increased mitochondrial mass (%) [10]: 6.73%
Population with membrane disruption (%) [10]: 4.81%
Cell count normalized to cells treated with DMSO control [11]: 1.2685
Cell count per well [11]: 191
Population Fragmented Nuclei (%) [11]: 21.91%
Population Healthy Nuclei (%) [11]: 61.24%
Population Pyknosed Nuclei (%) [11]: 16.85%
Population apoptotic cell (%) [11]: 40.00%
Population cell that influence microtubule strucutre (%) [11]: 92.66%
Population with increased mitochondrial mass (%) [11]: 15.60%
Population with membrane disruption (%) [11]: 0.92%
Cell count normalized to cells treated with DMSO control [12]: 1.111
Cell count per well [12]: 185
Population Fragmented Nuclei (%) [12]: 27.68%
Population Healthy Nuclei (%) [12]: 47.46%
Population Pyknosed Nuclei (%) [12]: 24.86%
Population apoptotic cell (%) [12]: 52.27%
Population cell that influence microtubule strucutre (%) [12]: 92.86%
Population with increased mitochondrial mass (%) [12]: 14.29%
Population with membrane disruption (%) [12]: 21.43%
Cell count normalized to cells treated with DMSO control [13]: 1.273
Cell count per well [13]: 192
Population Fragmented Nuclei (%) [13]: 24.02%
Population Healthy Nuclei (%) [13]: 64.25%
Population Pyknosed Nuclei (%) [13]: 11.73%
Population apoptotic cell (%) [13]: 42.86%
Population cell that influence microtubule strucutre (%) [13]: 93.04%
Population with increased mitochondrial mass (%) [13]: 32.17%
Population with membrane disruption (%) [13]: 1.74%
Cell count normalized to cells treated with DMSO control [14]: 1.116
Cell count per well [14]: 184
Population Fragmented Nuclei (%) [14]: 31.58%
Population Healthy Nuclei (%) [14]: 47.95%
Population Pyknosed Nuclei (%) [14]: 20.47%
Population apoptotic cell (%) [14]: 48.57%
Population cell that influence microtubule strucutre (%) [14]: 92.68%
Population with increased mitochondrial mass (%) [14]: 21.95%
Population with membrane disruption (%) [14]: 6.10%
Cell count normalized to cells treated with DMSO control [15]: 1.325
Cell count per well [15]: 201
Population Fragmented Nuclei (%) [15]: 25.53%
Population Healthy Nuclei (%) [15]: 63.83%
Population Pyknosed Nuclei (%) [15]: 10.64%
Population apoptotic cell (%) [15]: 70.00%
Population cell that influence microtubule strucutre (%) [15]: 98.33%
Population with increased mitochondrial mass (%) [15]: 42.50%
Population with membrane disruption (%) [15]: 0.83%
Cell count normalized to cells treated with DMSO control [16]: 1.216
Cell count per well [16]: 198
Population Fragmented Nuclei (%) [16]: 37.50%
Population Healthy Nuclei (%) [16]: 43.23%
Population Pyknosed Nuclei (%) [16]: 19.27%
Population apoptotic cell (%) [16]: 51.35%
Population cell that influence microtubule strucutre (%) [16]: 90.36%
Population with increased mitochondrial mass (%) [16]: 21.69%
Population with membrane disruption (%) [16]: 12.05%
